Experimental data published in patent publication US9241998B2 (Board of Regents, The University of Texas System, priority 2007, dated 2016).
Peptide text beside a SMILES is read from it. * marks the point of attachment. Cbz = O=C(OCc1ccccc1)*; CH2F = FC*

Columns and labels:
PC-3 cells = assay: Western blot of apoptosis proteins in RSV infected cells; assay type: cell-based, human
Description: Bcl-2, Bcl-xL, Bad, Bax antibodies were obtained from Cell Signaling, while caspase-3, PARP and GFP antibodies were from Santa Cruz. Heat shock protein-70 (Hsp70) (Santa Cruz) antibody was used as a loading control. Nuclear extracts prepared from infected cells were incubated with a ^32P-labeled NF-κB oligonucleotide probe and analyzed for EMSA as described previously.

RSV infected PC-3 cells = assay: RSV induced apoptosis (TUNEL) with caspase inhibitors or neutralizing antibodies; assay type: cell-based, human; settings: for decline in RSV induced apoptosis (TUNEL): PC-3 cells, 36 h post-infection, 15 μM optimal for caspase-3, -9, -8 inhibitors
Description: PC-3 cells were pre-treated with control inhibitor (Z-FA-FMK) or caspase-3 (Z-DQMD-FMK), -8 (Z-IETD-FMK), -9 (Z-LEHD-FMK), -3/7 (Z-DEVD-FMK) (Calbiochem) and -12 (Z-ATAD-FMK) (MBL) inhibitors for 1 h at 37° C. Caspase-3, -8, -9 and -3/7 inhibitors at 15 μM-60 μM were used, while the caspase-12 inhibitor was used at 50 μM-100 μM. […] The cells were then washed and the infection was continued for an additional 36 h in the presence of inhibitors, following which apoptosis analysis was performed by TUNEL assay. […] In some experiments, infection was performed in the presence of both neutralizing antibody and caspase-3 or -8 inhibitors. At 36 h post-infection, cells were assayed for apoptosis. PC-3 and RWPE cells were pre-treated with either SN50 peptide (30 μM) or control SN50M (50 μM) peptide (Calbiochem) for 2 h, followed by virus infection (in the presence of peptides) for 0 h-36 h, after which cells were analyzed for apoptosis.

A549 cells = assay: Interferon-γ+Fas antibody mediated apoptosis in A549 cells; assay type: cell-based, human
From the text: (§1) The extrinsic pathway to apoptosis is induced following engagement of death receptors (e.g., TNF-receptor and Fas) with cognate ligands (TNF and FasL), leading to the activation of caspase-8. The ER-stress pathway (12) activation leads to activation of caspase-12. Activation of both caspase-8 and caspase-12 results in caspase-3 activation and apoptosis. […] Similarly, blocking caspase-9 activity also led to significant inhibition (by 75%) in apoptosis. […] It is important to note that the caspase-8 inhibitor is active, since it reduced interferon-γ+Fas antibody mediated apoptosis (14) in A549 cells by 60%.

[1] = tested on: human lung epithelial A549 cells; assay: RSV mediated apoptosis in A549 cells with caspase inhibitor; assay type: cell-based
From the text: as §1

Compound	PARP cleavage in RSV infected cells treated with inhibitor (PC-3 cells)	decline in RSV induced apoptosis (TUNEL) (RSV infected PC-3 cells)	reduction of interferon-γ+Fas antibody mediated apoptosis (A549 cells) [%]	inhibition of apoptosis in infected PC-3 cells at high concentration (RSV infected PC-3 cells; up to 100 μM)	inhibition of RSV mediated apoptosis [1] [%]
COC(=O)CC[C@H](NC(=O)[C@H](CC(=O)OC)NC(=O)OCc1ccccc1)C(=O)N[C@H](C(=O)N[C@@H](CC(=O)OC)C(=O)CF)C(C)C [Z-DEVD-FMK]	prevented PARP cleavage				
COC(=O)C[C@H](NC(=O)[C@H](CCSC)NC(=O)[C@H](CCC(N)=O)NC(=O)[C@H](CC(=O)OC)NC(=O)OCc1ccccc1)C(=O)CF [caspase-3 inhibitor, Z-DQMD-FMK] (Cbz-D(OMe)QMD(OMe)-CH2F)	prevented PARP cleavage	85%			
CC[C@H](C)[C@H](NC(=O)OCc1ccccc1)C(=O)N[C@@H](CCC(=O)OC)C(=O)N[C@H](C(=O)N[C@@H](CC(=O)OC)C(=O)CF)[C@@H](C)O [caspase-8 inhibitor, Z-IETD-FMK] (Cbz-IE(OMe)TD(OMe)-CH2F)		15%	60		
COC(=O)CC[C@H](NC(=O)[C@H](CC(C)C)NC(=O)OCc1ccccc1)C(=O)N[C@@H](Cc1cnc[nH]1)C(=O)N[C@@H](CC(=O)OC)C(=O)CF [caspase-9 inhibitor, Z-LEHD-FMK] (Cbz-LE(OMe)HD(OMe)-CH2F)		75%			
C[C@H](NC(=O)OCc1ccccc1)C(=O)N[C@H](C(=O)N[C@@H](C)C(=O)N[C@@H](CC(=O)O)C(=O)CF)[C@@H](C)O [caspase-12 inhibitor, Z-ATAD-FMK] (Cbz-ATAD-CH2F)		did not alter apoptosis		failed to inhibit apoptosis	40
